In patent US4039540A, “3-Substituted quinoxaline-2-carboxamide-1,4-dioxides” (Pfizer Inc., priority 1975, dated 1977):
≈ marks a conversion by molar mass, not a printed value. Like-named read-outs stand apart in the source and are kept apart here.

Key:
[1] = tested on: Strep. pyogenes; test: in vivo activity in mice infected with a lethal inoculum of Strep. pyogenes; settings: Streptococcus pyogenes, multiple dosing
Protocol: (§1) In determining the in vivo activity of the quinoxaline-1,4-dioxides of this invention, the test compound is administered to mice which have been infected by […] injection of a lethal inoculum of pathogenic bacteria. The test compound is administered using a multiple dosing regimen and using either the oral (PO) or the subcutaneous (SC) route. The inoculum of bacteria varies from about 1 to about 10 times the amount needed to kill 100% of the mice under the conditions of the test. At the end of the test, the activity of the compound is assessed by counting the number of survivors among the treated animals.
(§2) In vitro and in vivo activity of representative compounds of this invention, determined as aforesaid, are reported in the following tabulation for compounds of the formula: [drawing 12]

[2] = tested on: Strep. pyrogens; test: in vitro antibacterial activity, two-fold serial dilution in Brain-Heart Infusion Broth (MIC); assay type: cell-based; settings: overnight, anaerobic
Protocol: (§3) The broth is inoculated with bacteria and with the test quinoxaline-1,4-dioxide and then it is incubated overnight under anerobic conditions. On the next day, the test is read visually. The minimum inhibitory concentration (MIC) of test compound is the lowest concentration which prevents turbidity, i.e., which prevents growth of the microorganism.
as §2

[3] = tested on: E. coli; test: as above; assay type: cell-based; settings: Escherichia coli, overnight, anaerobic
Protocol: as §3, §2

[4] = tested on: E. coli; test: in vivo activity in mice infected with a lethal inoculum of E. coli; settings: Escherichia coli, sc, subcutaneous, multiple dosing, read-out: IN VIVO E. coli, number of survivors among the treated animals
Protocol: as §1, §2

[5] = oral, read-out: IN VIVO Strep. pyogenes, number of survivors among the treated animals, PO (data in parenthesis)
[6] = sc, subcutaneous, read-out: IN VIVO Strep. pyogenes, number of survivors among the treated animals

CCNC(=O)c1c(CS(=O)(=O)CCCN2CCOCC2)[n+]([O-])c2ccccc2[n+]1[O-] [NHCH2 CH3; drawing 17; H]
responders at 50 mg/kg [1, 5]: 80%
responders at 50 mg/kg [1, 6]: 100%
MIC [2]: 12.5 µg/mL (≈ 28.5 µM)
MIC [3]: 25 µg/mL (≈ 57 µM)
responders at 25 mg/kg [4]: 60%

CNC(=O)c1c(CSCCCO)[n+]([O-])c2ccccc2[n+]1[O-] [NHMe; SCH2 CH2 CH2 OH; H]
responders at 50 mg/kg [1, 5]: 10%
responders at 50 mg/kg [1, 6]: 0%
MIC [2]: 1.56 µg/mL (≈ 4.83 µM)
MIC [3]: 12.5 µg/mL (≈ 38.7 µM)
responders at 25 mg/kg [4]: 20%

CCNC(=O)c1c(CSCCCOC(C)=O)[n+]([O-])c2ccccc2[n+]1[O-] [NHCH2 CH3; SCH2 CH2 CH2 OAc; H]
responders at 50 mg/kg [1, 5]: 20%
responders at 50 mg/kg [1, 6]: 10%
MIC [2]: 3.12 µg/mL (≈ 8.24 µM)
MIC [3]: 25 µg/mL (≈ 65.9 µM)
responders at 25 mg/kg [4]: 0%

CCNC(=O)c1c(CS(=O)(=O)CCO)[n+]([O-])c2ccccc2[n+]1[O-] [NHEt; SO2 CH2 CH2 OH; H]
responders at 50 mg/kg [1, 5]: 80%
responders at 50 mg/kg [1, 6]: 60%
MIC [2]: 1.56 µg/mL (≈ 4.4 µM)
MIC [3]: 6.25 µg/mL (≈ 17.6 µM)
responders at 25 mg/kg [4]: 90%

CN(C)CCCS(=O)(=O)Cc1c(C(N)=O)[n+]([O-])c2ccccc2[n+]1[O-] [NH2; SO2 (CH2)3 N(CH3)2; H]
responders at 50 mg/kg [1, 5]: 20%
responders at 50 mg/kg [1, 6]: 100%
MIC [2]: 1.56 µg/mL (≈ 4.24 µM)
MIC [3]: 25 µg/mL (≈ 67.9 µM)
responders at 25 mg/kg [4]: 50%

CCN(CC)CCCS(=O)(=O)Cc1c(C(=O)NC)[n+]([O-])c2ccccc2[n+]1[O-] [NHCH3; SO2 (CH2)3 N(CH2 CH3)2; H]
responders at 50 mg/kg [1, 5]: 0%
responders at 50 mg/kg [1, 6]: 80%
MIC [2]: 12.5 µg/mL (≈ 30.5 µM)
MIC [3]: 25 µg/mL (≈ 60.9 µM)
responders at 25 mg/kg [4]: 40%

CN(C)CCCS(=O)(=O)Cc1c(C(=O)NCCO)[n+]([O-])c2ccccc2[n+]1[O-] [NHCH2 CH2 OH; SO2 (CH2)3 N(CH3)2; H]
responders at 50 mg/kg [1, 5]: 0%
responders at 50 mg/kg [1, 6]: 60%
MIC [2]: 50 µg/mL (≈ 121 µM)
MIC [3]: 50 µg/mL (≈ 121 µM)
responders at 25 mg/kg [4]: 0%

NC(=O)c1c(CS(=O)(=O)CCCN2CCCCC2)[n+]([O-])c2ccccc2[n+]1[O-] [NH2; drawing 24; H]
responders at 50 mg/kg [1, 5]: 40%
responders at 50 mg/kg [1, 6]: 100%
MIC [2]: 6.25 µg/mL (≈ 15.3 µM)
MIC [3]: 6.25 µg/mL (≈ 15.3 µM)
responders at 25 mg/kg [4]: 100%

CC(O)CNC(=O)c1c(CS(=O)(=O)CCO)[n+]([O-])c2ccccc2[n+]1[O-] (stereo not shown) [NHCH2 CHOHCH3; SO2 CH2 CH2 OH; H]
responders at 50 mg/kg [1, 5]: 10%
responders at 50 mg/kg [1, 6]: 0%
MIC [2]: 12.5 µg/mL (≈ 32.4 µM)
MIC [3]: 100 µg/mL (≈ 259 µM)
responders at 25 mg/kg [4]: 20%

CC(=O)OCCCSCc1c(C(=O)NCCO)[n+]([O-])c2ccccc2[n+]1[O-] [NHCH2 CH2 OH; S(CH2)3 OAc; H]
responders at 50 mg/kg [1, 5]: 30%
responders at 50 mg/kg [1, 6]: 10%
MIC [2]: 6.25 µg/mL (≈ 15.8 µM)
MIC [3]: 100 µg/mL (≈ 253 µM)
responders at 25 mg/kg [4]: 30%

CCN(CC)CCCS(=O)(=O)Cc1c(C(=O)N(C)C)[n+]([O-])c2ccccc2[n+]1[O-] [N(CH3)2; SO2 (CH2)3 N(CH2 CH3)2; H]
responders at 50 mg/kg [1, 5]: 10%
responders at 50 mg/kg [1, 6]: 60%
MIC [2]: 6.25 µg/mL (≈ 14.7 µM)
MIC [3]: 25 µg/mL (≈ 58.9 µM)
responders at 25 mg/kg [4]: 0%

CCSCCNC(=O)c1c(CS(=O)(=O)CCO)[n+]([O-])c2ccccc2[n+]1[O-] [NHCH2 CH2 SCH2 CH3; SO2 CH2 CH2 OH; H]
responders at 50 mg/kg [1, 5]: 0%
responders at 50 mg/kg [1, 6]: 10%
MIC [2]: 1.56 µg/mL (≈ 3.76 µM)
MIC [3]: 100 µg/mL (≈ 241 µM)
responders at 25 mg/kg [4]: 50%

CCCCNC(=O)c1c(CS(=O)(=O)CCCN(C)C)[n+]([O-])c2ccccc2[n+]1[O-] [NH(CH2)3 CH3; SO2 (CH2)3 N(CH3)2; H]
responders at 50 mg/kg [1, 5]: 80%
responders at 50 mg/kg [1, 6]: 100%
MIC [2]: 25 µg/mL (≈ 58.9 µM)
MIC [3]: 25 µg/mL (≈ 58.9 µM)
responders at 25 mg/kg [4]: 50%

CCNC(=O)c1c(CS(=O)(=O)CCCO)[n+]([O-])c2ccccc2[n+]1[O-] [NHCH2 CH3; SO2 CH2 CH2 CH2 OH; H]
responders at 50 mg/kg [1, 5]: 20%
responders at 50 mg/kg [1, 6]: 80%
MIC [2]: < 0.39 µg/mL
MIC [3]: 6.25 µg/mL (≈ 16.9 µM)
responders at 25 mg/kg [4]: 10%
